Series [1] in a line: The drug is tested on WLS-006 corresponding to human gut metagenome with ENA study accession number: PRJEB37062 and ENA sample accession number: ERS12561741 for biotransformation under anaerobic condition. The drug concentrations were measured over 9 timepoints collected between 0 and 24 hours of incubation by liquid-chromatography-coupled mass spectrometry (LC–MS). The settings on record: 2 µM.

Series [2] can be described thus: The drug is tested on WLS-170 corresponding to human gut metagenome with ENA study accession number: PRJEB37062 and ENA sample accession number: ERS12561762 for biotransformation under anaerobic condition. The drug concentrations were measured over 9 timepoints collected between 0 and 24 hours of incubation by liquid-chromatography-coupled mass spectrometry (LC–MS). The settings on record: 2 µM.

Series [3] can be described thus: The drug is tested on WLS-310 corresponding to human gut metagenome with ENA study accession number: PRJEB37062 and ENA sample accession number: ERS12561785 for biotransformation under anaerobic condition. The drug concentrations were measured over 9 timepoints collected between 0 and 24 hours of incubation by liquid-chromatography-coupled mass spectrometry (LC–MS). The settings on record: 2 µM.

The nature of series [4]: The drug is tested on WLS-240 corresponding to human gut metagenome with ENA study accession number: PRJEB37062 and ENA sample accession number: ERS12561773 for biotransformation under anaerobic condition. The drug concentrations were measured over 9 timepoints collected between 0 and 24 hours of incubation by liquid-chromatography-coupled mass spectrometry (LC–MS). The settings on record: 2 µM.

The conditions of series [5]: human gut metagenome, 24 h, 2 µM.
For series [6] the following is noted: human gut metagenome, 24 h, 2 µM. The source holds these as a separate data set.
For series [7] the following is noted: human gut metagenome, 24 h, 2 µM. The source holds these as a separate data set.
Series [8] in a line: The drug is tested on Z-027 corresponding to metagenome with ENA study accession number: PRJEB37062 and ENA sample accession number: ERS12561826 for biotransformation under anaerobic condition. The drug concentrations were measured over 9 timepoints collected between 0 and 24 hours of incubation by liquid-chromatography-coupled mass spectrometry (LC–MS). The following applies: 2 µM.

Series [9] can be described thus: The drug is tested on Z-029 corresponding to rat gut metagenome with ENA study accession number: PRJEB37062 and ENA sample accession number: ERS12561828 for biotransformation under anaerobic condition. The drug concentrations were measured over 9 timepoints collected between 0 and 24 hours of incubation by liquid-chromatography-coupled mass spectrometry (LC–MS). The settings on record: 2 µM.

Series [10] in a line: The drug is tested on Z-007 corresponding to rat gut metagenome with ENA study accession number: PRJEB37062 and ENA sample accession number: ERS12561807 for biotransformation under anaerobic condition. The drug concentrations were measured over 9 timepoints collected between 0 and 24 hours of incubation by liquid-chromatography-coupled mass spectrometry (LC–MS). The settings on record: 2 µM.

Series [11] in a line: The drug is tested on WLS-077 corresponding to human gut metagenome with ENA study accession number: PRJEB37062 and ENA sample accession number: ERS12561750 for biotransformation under anaerobic condition. The drug concentrations were measured over 9 timepoints collected between 0 and 24 hours of incubation by liquid-chromatography-coupled mass spectrometry (LC–MS). The following applies: 2 µM.

For series [12] the following is noted: human gut metagenome, 24 h, 2 µM. This is another data set of the same source.
For series [13] the following is noted: human gut metagenome, 24 h, 2 µM. This is another data set of the same source.
Series [14] is described as follows: The drug is tested on Z-003 corresponding to pig gut metagenome with ENA study accession number: PRJEB37062 and ENA sample accession number: ERS12561803 for biotransformation under anaerobic condition. The drug concentrations were measured over 9 timepoints collected between 0 and 24 hours of incubation by liquid-chromatography-coupled mass spectrometry (LC–MS). The following applies: 2 µM.

A short description of series [15]: The drug is tested on WLS-098 corresponding to human gut metagenome with ENA study accession number: PRJEB37062 and ENA sample accession number: ERS12561754 for biotransformation under anaerobic condition. The drug concentrations were measured over 9 timepoints collected between 0 and 24 hours of incubation by liquid-chromatography-coupled mass spectrometry (LC–MS). The settings on record: 2 µM.

Series [16] in a line: The drug is tested on Z-018 corresponding to pig gut metagenome with ENA study accession number: PRJEB37062 and ENA sample accession number: ERS12561817 for biotransformation under anaerobic condition. The drug concentrations were measured over 9 timepoints collected between 0 and 24 hours of incubation by liquid-chromatography-coupled mass spectrometry (LC–MS). The following applies: 2 µM.

A short description of series [17]: The drug is tested on Z-028 corresponding to mouse gut metagenome with ENA study accession number: PRJEB37062 and ENA sample accession number: ERS12561827 for biotransformation under anaerobic condition. The drug concentrations were measured over 9 timepoints collected between 0 and 24 hours of incubation by liquid-chromatography-coupled mass spectrometry (LC–MS). The following applies: 2 µM.

Series [18] is described as follows: The drug is tested on Z-026 corresponding to metagenome with ENA study accession number: PRJEB37062 and ENA sample accession number: ERS12561825 for biotransformation under anaerobic condition. The drug concentrations were measured over 9 timepoints collected between 0 and 24 hours of incubation by liquid-chromatography-coupled mass spectrometry (LC–MS). The settings on record: 2 µM.

The conditions of series [19]: human gut metagenome, 24 h, 2 µM. This is another data set of the same source.
The conditions of series [20]: human gut metagenome, 24 h, 2 µM. This is another data set of the same source.

Each structure is given as a SMILES string.
Also: call rule not given here.

In the case of `CCC(COC(=O)c1cc(OC)c(OC)c(OC)c1)(c1ccccc1)N(C)C.O=C(O)/C=C\C(=O)O` (stereo not given), the “Bacterial Biotransformation” value was “Compound NOT metabolized” in [1]; “Compound metabolized” in series [2]; “Compound metabolized” in series [3]; “Compound metabolized” in [4]; “Compound NOT metabolized” in series [5]; “Compound NOT metabolized” in [6]. Also, the “Bacterial Biotransformation” value was “Compound metabolized” in series [7]; “Compound NOT metabolized” in [8]; “Compound NOT metabolized” in series [9]; “Compound NOT metabolized” in series [10]; “Compound NOT metabolized” in [11]; “Compound NOT metabolized” in [12]. Further, the “Bacterial Biotransformation” value in series [13] was “Compound metabolized”; in series [14] it was “Compound NOT metabolized”; in series [15], “Compound NOT metabolized”; in series [16], “Compound metabolized”; in series [17], “Compound metabolized”; in [18] it was “Compound NOT metabolized”. Moreover, the “Bacterial Biotransformation” value in series [19] was “Compound metabolized”; in [20] it was “Compound NOT metabolized”.
Take `C[C@@H]1C[C@H]2[C@@H]3CCC4=CC(=O)C=C[C@]4(C)[C@@]3(F)[C@@H](O)C[C@]2(C)[C@@]1(O)C(=O)CO` [DEXAMETHASONE]: the “Bacterial Biotransformation” value in series [2] is on record as “Compound NOT metabolized”; in [3], “Compound metabolized”; in [5] it was “Compound NOT metabolized”; in series [6], “Compound NOT metabolized”; in series [7], “Compound NOT metabolized”; in [8], “Compound metabolized”. Also, the “Bacterial Biotransformation” value was “Compound NOT metabolized” in series [9]; “Compound NOT metabolized” in series [10]; “Compound NOT metabolized” in series [11]; “Compound NOT metabolized” in series [12]; “Compound NOT metabolized” in series [13]; “Compound metabolized” in series [14]. The “Bacterial Biotransformation” value is listed as “Compound NOT metabolized” in [15]; “Compound metabolized” in [16]; “Compound NOT metabolized” in series [17]; “Compound NOT metabolized” in series [18]; “Compound NOT metabolized” in series [19]; “Compound NOT metabolized” in [20].
Turning to `C=CCN1CC[C@]23c4c5ccc(O)c4O[C@H]2C(=O)CC[C@@]3(O)[C@H]1C5` [NALOXONE], the “Bacterial Biotransformation” value in [2], in series [3], in series [4], in series [5], in series [6] and in [7] was “Compound NOT metabolized” in each case. Also, the “Bacterial Biotransformation” value in series [8], in series [9], in series [10], in series [11], in series [12] and in series [13] was “Compound NOT metabolized” throughout. Besides, the “Bacterial Biotransformation” value in [14] is “Compound metabolized”; in [15], “Compound NOT metabolized”; in series [16], “Compound NOT metabolized”; in [17], “Compound NOT metabolized”; in series [18], “Compound NOT metabolized”; in series [19], “Compound NOT metabolized”. The “Bacterial Biotransformation” value in series [20] is reported as “Compound NOT metabolized”.
For `CO[C@]12C[C@@H](COC(=O)c3cncc(Br)c3)CN(C)[C@@H]1Cc1cn(C)c3cccc2c13` [NICERGOLINE], the “Bacterial Biotransformation” value in [1] was “Compound metabolized”; in series [2] it was “Compound NOT metabolized”; in [3], “Compound NOT metabolized”; in series [4], “Compound NOT metabolized”; in [5], “Compound NOT metabolized”; in series [6] it was “Compound NOT metabolized”. Moreover, the “Bacterial Biotransformation” value in [7] is on record as “Compound NOT metabolized”; in series [8], “Compound metabolized”; in series [9] it was “Compound NOT metabolized”; in series [10] it was “Compound NOT metabolized”; in [12], “Compound NOT metabolized”; in [13], “Compound NOT metabolized”. Further, the “Bacterial Biotransformation” value is given as “Compound metabolized” in series [14]; “Compound metabolized” in series [15]; “Compound metabolized” in [16]; “Compound metabolized” in [17]; “Compound metabolized” in series [18]; “Compound NOT metabolized” in series [19]. Also, in series [20], the “Bacterial Biotransformation” value was “Compound NOT metabolized”.
As for `NC(=O)N1c2ccccc2CC(=O)c2ccccc21` [OXCARBAZEPINE], the “Bacterial Biotransformation” value in [2] is “Compound NOT metabolized”; in [3], “Compound NOT metabolized”; in series [4], “Compound NOT metabolized”; in series [5], “Compound NOT metabolized”; in series [6], “Compound NOT metabolized”; in series [7], “Compound metabolized”. Further, the “Bacterial Biotransformation” value in series [8], in [9], in series [10], in series [11], in series [12] and in series [13] was “Compound NOT metabolized” each time. Further, the “Bacterial Biotransformation” value in series [14] was “Compound metabolized”; in series [15] it was “Compound NOT metabolized”; in series [16], “Compound metabolized”; in series [17], “Compound NOT metabolized”; in series [18] it was “Compound NOT metabolized”; in series [19], “Compound NOT metabolized”. In addition, the “Bacterial Biotransformation” value in series [20] is recorded as “Compound NOT metabolized”.

The values above are taken from ChEMBL document CHEMBL5724914, “Linking interpersonal differences in gut microbiota composition and drug biotransformation activity” (2024).
